The results in this text go back to patent publication US4077952A, “Somatostatin analogs” (American Home Products Corporation, priority 1977, dated 1978).

Positions of bridges follow the written chain, without caps; N, C: chain ends. Non-standard residues stand in square brackets, D forms with d. Residues, ends and D or L forms follow the SMILES beside them.

Common to all, as to format: in vivo
What all share (conditions): albino male rats, blood 15 min after compound, 5 min after arginine

Test [1] deals with growth hormone (GH). Nature of the test: Suppression of growth hormone in arginine-stimulated, nembutal-anesthetized rats. Here is the method:
(§1) Albino male rats are arranged in two groups (nine rats/group) and injected i.p. with nembutal at 50 mg/kg. Fifteen minutes after the nembutal injection they are injected s.c. according to group with test compound, or physiological saline. Ten minutes later 0.5 ml. of arginine (300 mg/ml. pH 7.2) is injected into the heart. The rats are decapitated five minutes after receiving the arginine, and the blood is collected into Trasylol-EDTA. Appropriate aliquots are then assayed for growth hormone (GH), glucagon (GLUN), and insulin (INS). […] Comparisons between control and experimental values are statistically evaluated by the analysis of variants method and statistical significance (p) at 0.05 or lower is used as the index of activity.

The subject of test [2] is insulin (INS). Put plainly: Suppression of insulin in arginine-stimulated, nembutal-anesthetized rats. Here is the method: as §1
Test [3] concerns glucagon (GLUN). Nature of the test: Suppression of glucagon in arginine-stimulated, nembutal-anesthetized rats. Here is the method:
as §1

For `C[C@@H](O)[C@@H]1NC(=O)[C@H](Cc2ccccc2)NC(=O)[C@H]([C@@H](C)O)NC(=O)[C@H](CCCCN)NC(=O)[C@@H](Cc2c[nH]c3ccccc23)NC(=O)[C@H](Cc2ccccc2)NC(=O)[C@H](Cc2ccccc2)NC(=O)[C@H](Cc2c[nH]cn2)NC(=O)[C@H](CCCNC(=N)N)NC(=O)[C@@H](N)CSSC[C@@H](C(=O)O)NC(=O)[C@H](CO)NC1=O` [Example 2, L-Cysteinyl-L-Arginyl-L-Histidyl-L-Phenylalanyl-L-Phenylalanyl-D-Tryptophyl-L-Lysyl-L-Threonyl-L-Phenylalanyl-L-Threonyl-L-Seryl-L-Cysteine Cyclic (1-12) Disulfide] (H-CRHFF[dW]KTFTSC-OH; disulfide 1-12), the GH plasma level in test [1] (Experiment 1, 100 μg/kg s.c., saline control 257 ± 49) was 61 ng/mL; in test [1] (Experiment 2, 10 μg/kg s.c., saline control 131 ± 43), 71 ± 21 ng/mL. Also, the INS plasma level in test [2] (Experiment 1, 100 μg/kg s.c., saline control 177 ± 19) came to 52 ± 16 μU/ml; in test [2] (Experiment 2, 10 μg/kg s.c., saline control 262 ± 26) it was 238 ± 72 μU/ml. The GLUN plasma level worked out at 0 ± 0 pg/mL in test [3] (Experiment 1, 100 μg/kg s.c., saline control 61 ± 9) and 4 ± 3 pg/mL in test [3] (Experiment 2, 10 μg/kg s.c., saline control 42 ± 6).
